Test results from PubChem BioAssay AID328 (DTP/NCI, 2004).
Where “and” joins values, the source holds several entries; their conditions need not be identical. Identical values can stand only once. Toxic doses and inconclusive results are not listed. How the source made its calls: active means survival T/C of 150% or more; inactive means T/C below 125% in these data.

System: BDF1 mice, P388 leukemia ip, median survival T/C
Assay: NCI In Vivo Anticancer Drug Screen. Data for tumor model P388 Leukemia (intraperitoneal) in B6D2F1 (BDF1) mice
Conditions: endpoint: median survival time, higher = longer survival
Procedure, shortened: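 Compound-treated tumour-bearing mice were compared with vehicle-treated controls. Survival was recorded, and the value is the treated-group measurement divided by the control-group measurement (T/C).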

Measured: T/C

COC(=O)[C@@]12OC[C@]34[C@H]([C@@H](O)[C@@H]1O)[C@@]1(C)CC(=O)C(OC(=O)CC(=O)OC5=C(C)[C@@H]6C[C@H]7OC(=O)[C@H](OC(=O)C=C(C)C)[C@H]8[C@]9(C(=O)OC)OC[C@]78[C@H]([C@@H](O)[C@@H]9O)[C@@]6(C)CC5=O)=C(C)[C@@H]1C[C@H]3OC(=O)[C@H](OC(=O)C=C(C)C)[C@@H]24
inactive: dose: 0.18 mg/kg/injection, schedule: Q01DX009 (ip), vehicle: distilled water + Tween-80 104 % of control | dose: 0.37 mg/kg/injection, schedule: Q01DX009 (ip), vehicle: distilled water + Tween-80 104 % of control | dose: 0.75 mg/kg/injection, schedule: Q01DX009 (ip), vehicle: distilled water + Tween-80 100 % of control | dose: 1.5 mg/kg/injection, schedule: Q01DX009 (ip), vehicle: distilled water + Tween-80 98 % of control | dose: 3.0 mg/kg/injection, schedule: Q01DX009 (ip), vehicle: distilled water + Tween-80 111 % of control

CC1=C(C)CC2C(=O)C=CC(=O)C2C1 (configuration not stated)
inactive: dose: 12.5 mg/kg/injection, schedule: Q01DX009 (ip), vehicle: water 95 % of control | dose: 25.0 mg/kg/injection, schedule: Q01DX009 (ip), vehicle: water 90 % of control | dose: 25.0 mg/kg/injection, schedule: Q04DX003 (ip), vehicle: water 113 % of control | dose: 50.0 mg/kg/injection, schedule: Q01DX009 (ip), vehicle: water 93 % of control | dose: 50.0 mg/kg/injection, schedule: Q04DX003 (ip), vehicle: water 113 % of control | dose: 100.0 mg/kg/injection, schedule: Q01DX009 (ip), vehicle: water 100 % of control | dose: 100.0 mg/kg/injection, schedule: Q04DX003 (ip), vehicle: water 105 % of control and 112 % of control
